Patent US20230031406A1, “COMPOUNDS AND COMPOSITIONS FOR TREATING CONDITIONS ASSOCIATED WITH NLRP ACTIVITY” (Novartis AG, priority 2018, published 2023)
Where two headings read alike, the source gives them in different places. One block for each compound: values may come before it.

Tested on: PMA-differentiated THP-1 cells
Experiment: IL-1β production in PMA-differentiated THP-1 cells stimulated with gramicidin (hTHP-1 assay containing 2% fetal bovine serum; Procedures 1 and 2)
Type: cell-based, human
Settings: 2% fetal bovine serum
Method in brief: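 THP-1 cells were differentiated with PMA (20 ng/ml, 16-18 h), detached, and plated at 50,000 cells/well in RPMI 1640 with 2% FBS. They were pre-treated with compound (0.0017–100 μM, 0.37% DMSO) for 1 h, then stimulated with gramicidin (5 μM) for 2 h. Supernatant IL-1β was measured by HTRF.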

[1] = Homo sapiens, THP-1, Table B1, class symbols, read-out: Average IC50 of compounds in hTHP-1 assay: hTHP-1 IC50
[2] = Homo sapiens, THP-1, Table B3, hTHP-1 assay, class symbols, read-out: IC50
[3] = Table B1, class symbols, read-out: Average IC50 of compounds in hTHP-1 assay: hTHP-1 IC50
[4] = Homo sapiens, THP-1, Table B4, class symbols, read-out: hTHP-1 IC50
[5] = Table B3, hTHP-1 assay, class symbols, read-out: IC50
[6] = Homo sapiens, THP-1, Table B2, class symbols, read-out: hTHP-1 IC50
[7] = Table B4, class symbols, read-out: hTHP-1 IC50

Structure (SMILES): Cc1c(C2(F)CC2)nc2c(c1NC(=O)N=S(N)(=O)c1cc(C(C)(C)O)cs1)CCC2 (centres unmarked) [Example 611, N′-((2-(1-fluorocyclopropyl)-3-methyl-6,7-dihydro-5H-cyclopenta[b]pyridin-4-yl)carbamoyl)-4-(2-hydroxypropan-2-yl)thiophene-2-sulfonimidamide]
- IC50 [2]: 1 to 5 µM

Structure (SMILES): C[C@@H]1CCc2c1nc1c(c2NC(=O)N=[S@@](N)(=O)c2ccn(CF)n2)CCC1 [Example 573, (R)-1-(fluoromethyl)-N′—(((R)-3-methyl-1,2,3,5,6,7-hexahydrodicyclopenta[b,e]pyridin-8-yl)carbamoyl)-1H-pyrazole-3-sulfonimidamide]
- IC50 [2]: 1 to 5 µM

Structure (SMILES): CC1CCc2c1nc1c(c2NC(=O)N=S(N)(=O)c2sc(C(C)(C)O)nc2CO)CCC1 (centres unmarked) [Compound 168, 4-(hydroxymethyl)-2-(2-hydroxypropan-2-yl)-N′-((3-methyl-1,2,3,5,6,7-hexahydrodicyclopenta[b,e]pyridin-8-yl)carbamoyl)thiazole-5-sulfonimidamide]
- IC50 [3]: 0.2 to 1 µM

Structure (SMILES): CCn1cc(F)c(S(N)(=O)=NC(=O)Nc2c3c(nc(C(F)(F)F)c2-c2ccc(F)cc2)CCC3)n1 (centres unmarked) [Example 733, 1-Ethyl-4-fluoro-N′-((3-(4-fluorophenyl)-2-(trifluoromethyl)-6,7-dihydro-5H-cyclopenta[b]pyridin-4-yl)carbamoyl)-1H-pyrazole-3-sulfonimidamide]
- IC50 [4]: 0.04 to 0.2 µM

Structure (SMILES): CC1(C)CCc2c1nc1c(c2NC(=O)N=[S@@](N)(=O)c2cc([C@](C)(O)CO)cs2)CCC1 [Example 651, (R)-4-((S)-1,2-dihydroxypropan-2-yl)-N′-((3,3-dimethyl-1,2,3,5,6,7-hexahydrodicyclopenta[b,e]pyridin-8-yl)carbamoyl) thiophene-2-sulfonimidamide]
- IC50 [2]: 0.04 to 0.2 µM

Structure (SMILES): Cc1c(C(F)(F)F)nc(C(F)(F)F)c(C)c1NC(=O)N=S(N)(=O)c1cc(C(C)(C)O)cs1 (centres unmarked) [Example 738, N′-((3,5-dimethyl-2,6-bis(trifluoromethyl)pyridin-4-yl)carbamoyl)-4-(2-hydroxypropan-2-yl)thiophene-2-sulfonimidamide]
- IC50 [4]: 1 to 5 µM

Structure (SMILES): CCn1cc(F)c(S(N)(=O)=NC(=O)Nc2c3c(nc(C4CC4)c2C2CC2)CCC3)n1 (single isomer, unassigned) [Example 708, (S) or (R)-N′-((2,3-dicyclopropyl-6,7-dihydro-5H-cyclopenta[b]pyridin-4-yl)carbamoyl)-1-ethyl-4-fluoro-1H-pyrazole-3-sulfonimidamide]
- IC50 [5]: 5 to 30 µM

Structure (SMILES): Cc1c(C(C)(C)C)nc2c(c1NC(=O)N=S(N)(=O)c1cc(C(C)(C)O)cs1)CCC2 (single isomer, unassigned) [Compound 657a, (S) or (R)-N′-((2-(tert-butyl)-3-methyl-6,7-dihydro-5H-cyclopenta[b]pyridin-4-yl)carbamoyl)-4-(2-hydroxypropan-2-yl)thiophene-2-sulfonimidamide]
- IC50 (Homo sapiens, THP-1, Table B2, numeric bounds, read-out: hTHP-1 IC50): > 30 µM

Structure (SMILES): Cc1c(C(F)(F)F)nc2c(c1NC(=O)N=S(N)(=O)c1sc(C(C)(C)O)cc1F)CCC2 (single isomer, unassigned) [Compound 632a, (R) or (S)-3-Fluoro-5-(2-hydroxypropan-2-yl)-N′-((3-methyl-2-(trifluoromethyl)-6,7-dihydro-5H-cyclopenta[b]pyridin-4-yl)carbamoyl) thiophene-2-sulfonimidamide]
- IC50 (Table B2, class symbols, read-out: hTHP-1 IC50): 0.04 to 0.2 µM

Structure (SMILES): CC(C)(O)c1csc(S(N)(=O)=NC(=O)Nc2c3c(nc(C(F)(F)F)c2C2CC2)CCC3)c1 (single isomer, unassigned) [Example 646, (R) or (S)-N′-((3-((3-2-(trifluoromethyl)-6,7-dihydro-5H-cyclopenta[b]pyridin-4-yl)carbamoyl)-4-(2-hydroxypropan-2-yl)thiophene-2-sulfonimidamide]
- IC50 [5]: 0.04 to 0.2 µM

Structure (SMILES): CCc1nc2c(c(NC(=O)N=S(N)(=O)c3cc(C(C)(C)O)cs3)c1C1CC1)CCC2 (centres unmarked) [Compound 654, N′-((3-cyclopropyl-2-ethyl-6,7-dihydro-5H-cyclopenta[b]pyridin-4-yl)carbamoyl)-4-(2-hydroxypropan-2-yl)thiophene-2-sulfonimidamide]
- IC50 [6]: 0.2 to 1 µM

Structure (SMILES): CC(C)(O)c1cc(S(N)(=O)=NC(=O)Nc2c3c(nc4c2CCC4)CCC3)nn1-c1ccccc1 (centres unmarked) [Compound 159, N-((1,2,3,5,6,7-hexahydrodicyclopenta[b,e]pyridin-8-yl)carbamoyl)-5-(2-hydroxypropan-2-yl)-1-phenyl-1H-pyrazole-3-sulfonimidamide]
- IC50 [1]: 1 to 5 µM

Structure (SMILES): CCn1cc(F)c(S(N)(=O)=NC(=O)Nc2c3c(nc(C(F)(F)F)c2-c2ccccc2)CCC3)n1 (single isomer, unassigned) [Example 767, (R) or (S)-1-ethyl-4-fluoro-N′-((3-phenyl-2-(trifluoromethyl)-6,7-dihydro-5H-cyclopenta[b]pyridin-4-yl)carbamoyl)-1H-pyrazole-3-sulfonimidamide]
- IC50 [7]: 0.008 to 0.04 µM

The remaining lines, values ahead:

- IC50 [1]: 0.2 to 1 µM
Structure (SMILES): CC1(C)CCc2c1nc1c(c2NC(=O)N=S(N)(=O)c2ccn(C(F)F)n2)CCC1 (centres unmarked) [Compound 122, 1-(difluoromethyl)-N′-((3,3-dimethyl-1,2,3,5,6,7-hexahydrodicyclopenta[b,e]pyridin-8-yl)carbamoyl)-1H-pyrazole-3-sulfonimidamide]

- IC50 [5]: 0.04 to 0.2 µM
Structure (SMILES): NS(=O)(=NC(=O)Nc1c2c(nc3c1CCC31CC1)CCC2)c1nn(C(F)F)cc1F (single isomer, unassigned) [Example 681, (R) or (S)-1-(difluoromethyl)-4-fluoro-N′-((1′,5′,6′,7′-tetrahydro-2′H-spiro[cyclopropane-1,3′-dicyclopenta[b,e]pyridin]-8′-yl)carbamoyl)-1H-pyrazole-3-sulfonimidamide]

- IC50 [2]: 5 to 30 µM
Structure (SMILES): Cc1c(CC(F)(F)F)nc2c(c1NC(=O)N=S(N)(=O)c1nn(C(F)F)cc1F)CCC2 (centres unmarked) [Example 617, 1-(Difluoromethyl)-4-fluoro-N′-((3-methyl-2-(2,2,2-trifluoroethyl)-6,7-dihydro-5H-cyclopenta[b]pyridin-4-yl)carbamoyl)-1H-pyrazole-3-sulfonimidamide]

- IC50 [6]: 0.04 to 0.2 µM
Structure (SMILES): Cc1c(C(C)C)nc2c(c1NC(=O)N=S(N)(=O)c1cc(C(C)(C)O)cs1)CCC2 (centres unmarked) [Compound 681, 4-(2-Hydroxypropan-2-yl)-N′-((2-isopropyl-3-methyl-6,7-dihydro-5H-cyclopenta[b]pyridin-4-yl)carbamoyl)thiophene-2-sulfonimidamide]

- IC50 [7]: 1 to 5 µM
Structure (SMILES): NS(=O)(=NC(=O)Nc1c2c(nc(C(F)(F)F)c1-c1ccccc1)CCC2)c1nn(C(F)F)cc1F (single isomer, unassigned) [Example 766, (S) or (R)-1-(difluoromethyl)-4-fluoro-N′-((3-phenyl-2-(trifluoromethyl)-6,7-dihydro-5H-cyclopenta[b]pyridin-4-yl)carbamoyl)-1H-pyrazole-3-sulfonimidamide]

- IC50 [2]: 5 to 30 µM
Structure (SMILES): CC(C)(O)c1csc(S(N)(=O)=NC(=O)Nc2cc(C(F)(F)F)nc3c2CCC3)c1 (centres unmarked) [Example 567, 4-(2-Hydroxypropan-2-yl)-N′-((2-(trifluoromethyl)-6,7-dihydro-5H-cyclopenta[b]pyridin-4-yl)carbamoyl)thiophene-2-sulfonimidamide]

- IC50 [3]: 5 to 30 µM
Structure (SMILES): Cc1c(C2CC2)nc2c(c1NC(=O)N=S(N)(=O)c1sc(C(C)(C)O)cc1F)CCC2 (single isomer, unassigned) [Compound 174a, (R) or (S)-N′-((2-cyclopropyl-3-methyl-6,7-dihydro-5H-cyclopenta[b]pyridin-4-yl)carbamoyl)-3-fluoro-5-(2-hydroxypropan-2-yl)thio-phene-2-sulfonimidamide]
